Structures can show the parent of a compound that is named as a salt.

Series [1] is described as follows: Concentration of test drug in blood by oral administration in rats (LC/MS/MS). The format is in vivo. Particulars: Wistar rats, oral 1 mg/kg; for concentration at 5 min / concentration at 10 min / concentration at 15 min / concentration at 30 min / concentration at 1 h / concentration at 2 h: male, rat, plasma, mean of 2 samples; for concentration at 5 min: 5 min. after administration; for concentration at 10 min: 10 min. after administration; for concentration at 15 min: 15 min. after administration; for concentration at 30 min: 30 min. after administration; for concentration at 1 h: 1 hour after administration; for concentration at 2 h: 2 hours after administration. The protocol:
Experiment 2 [Concentration of Test Drug in Blood by Oral Administration in Rats]
Wistar rats, male (8 weeks old) were used after fasting from the day before the test.
At 5, 10, 15, 30 minutes, 1 and 2 hours after the administration, each 0.2 ml of blood was collected from the jugular vein and, after centrifugation, the resulting plasma was used as sample.
That is, 50 μl of the plasma was added to 200 μl of acetonitrile, stirred and, after centrifugation, the supernatant was injected to a liquid chromatography wherein CAPCEL PAK C18, UG120 5 μm (150 mm long, 2 mm diameter) was used as a column, a mixture of 10 mM aqueous ammonium acetate solution and 90% aqueous acetonitrile solution (1:9) was used as an eluent, Sciex API3000 LC/MS/MS System (Perkin Elmer Sciex) was used as a MS/MS condition, ESI was used as an ionization method, and cation, and SRM (precursor ion and daughter ion) was used for monitoring.

For a further series, the system named is Zucker fatty rats. Nature of the series: Oral glucose tolerance test (OGTT) in Zucker fatty rats. Type of series: in vivo. The protocol:
Experiment 3 [Effect of Dipeptidyl Peptidase IV Inhibitors on Oral Glucose Tolerance Test (OGTT) in Zucker Fatty Rats]
An OGTT in Zucker fatty rats was carried out referring to the method described in Diabetologia, 42, 1324-1331 (1999). In the test, male Zucker fatty rats, 10 weeks old (Charles River Japan, Inc.) were used after fasting for 16 hours. […] Before the begining of the test, blood was collected from the intraorbital vein using a heparin-treated tube for blood collection (manufactured by Drummond Scientific Co.). The test compounds were each dissolved in water for injection under Japanese Pharmacopoeia (manufactured by Hikari Pharmaceutical Co.) and orally administered in an amount of 2 ml/kg of the body weight. The same amount of water for injection under Japanese Pharmacopoeia only was administered to control group. […]
Plasma glucose levels of the frozen samples (mg/dl) were determined using Glucose CII test Wako (manufactured by Wako Fine Chemical Industry Co.), and the area under the curve (min·mg/dl) was calculated from the plasma glucose levels which were determined from the blood collected for 60 minutes after the glucose administration. […]

The target of series [2] is dipeptidyl peptidase IV (DPP IV) (Homo sapiens, UniProt P27487). Nature of the series: Dipeptidyl peptidase IV activity inhibition test (human plasma, Gly-Pro-4-methylcoumaryl-7-amide). Type of series: biochemical. The note with it: room temperature, 2 hours, pH 7.8. The protocol: Experiment 1 [Dipeptidyl Peptidase IV Activity Inhibition Test]
Sequence of dipeptidyl peptidase IV (DPP IV) (P27487 39-766 limits assumed): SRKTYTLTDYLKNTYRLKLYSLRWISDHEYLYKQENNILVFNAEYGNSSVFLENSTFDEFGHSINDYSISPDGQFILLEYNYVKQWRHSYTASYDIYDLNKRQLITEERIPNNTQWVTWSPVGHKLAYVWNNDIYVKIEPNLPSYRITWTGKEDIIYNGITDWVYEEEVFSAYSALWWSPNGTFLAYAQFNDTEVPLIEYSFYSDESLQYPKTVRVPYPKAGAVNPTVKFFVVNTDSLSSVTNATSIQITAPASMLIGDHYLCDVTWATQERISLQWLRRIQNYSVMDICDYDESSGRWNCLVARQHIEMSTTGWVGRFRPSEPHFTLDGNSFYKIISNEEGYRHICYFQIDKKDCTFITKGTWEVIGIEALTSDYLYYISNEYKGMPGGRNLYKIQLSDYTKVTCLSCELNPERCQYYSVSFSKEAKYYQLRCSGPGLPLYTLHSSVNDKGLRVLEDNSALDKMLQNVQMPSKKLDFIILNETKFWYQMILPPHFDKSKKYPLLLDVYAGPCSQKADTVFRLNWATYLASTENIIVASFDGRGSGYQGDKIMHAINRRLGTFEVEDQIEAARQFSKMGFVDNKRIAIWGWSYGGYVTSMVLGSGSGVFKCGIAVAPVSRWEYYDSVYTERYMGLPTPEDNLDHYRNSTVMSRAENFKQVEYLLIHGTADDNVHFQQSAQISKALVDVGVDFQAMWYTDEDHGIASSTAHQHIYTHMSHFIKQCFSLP
Plasma including dipeptidyl peptidase IV was prepared by centrifugation of blood collected from healthy human volunteers. […] The fluorescence intensity at which the reaction time of the vehicle addition was 0 minute was regarded as a blank value, and the specific fluorescence intensity was calculated by subtracting the blank value from the determined value. The inhibition rate (%) of the dipeptidyl peptidase IV activity was calculated from the resulting specific fluorescence intensity according to the following formula. The dimethyl sulfoxide solution containing the test compound at high concentration of 1000-fold was prepared and diluted with the above-mentioned buffer solution for use.
Inhibition rate (%)=A/B×100
(A=fluorescence intensity of vehicle addition fluorescence intensity of the test compound addition)
(B=fluorescence intensity of the vehicle addition)

In series [1], `CC[C@H](C)[C@H](N)C(=O)N1CCC[C@H]1C#N` [Compound A, 1-[(2S,3S)-2-amino-3-methylpentanoyl]-2-(S)-cyanopyrrolidine trifluoroacetate, reference compound] gave a concentration at 5 min of 122 ng/mL, a concentration at 10 min of 146 ng/mL, a concentration at 15 min of 113 ng/mL and a concentration at 30 min of 28 ng/mL. Also, in series [1], the concentration at 1 h is 6 ng/mL and the concentration at 2 h is 2 ng/mL.
With `CC[C@H](C)[C@H](N)C(=O)N1C[C@@H](F)C[C@H]1C#N.Cl` [Example 1, (2S,4S)-1-[(2S,3S)-2-amino-3-methylpentanoyl]-2-cyano-4-fluoropyrrolidine Hydrochloride], in series [1], the “concentration in plasma compared with Compound A (in words)” value is “higher concentration in plasma than Compound A”, the concentration at 5 min came to 157 ng/mL, the concentration at 10 min came to 372 ng/mL and the concentration at 15 min is 348 ng/mL. Besides, in series [1], the concentration at 30 min worked out at 195 ng/mL, the concentration at 1 h is 24 ng/mL and the concentration at 2 h amounted to 5 ng/mL. In addition, the “elevation of the plasma glucose level (in words)” value in the series on Zucker fatty rats (OGTT, p<0.05) was “inhibited significantly the elevation of the plasma glucose level”. Moreover, the “area under the curve of plasma glucose levels, mean ± S.E.” value in the series on Zucker fatty rats (oral, glucose 1 g/kg 30 minutes after compound, 60 minutes after glucose administration) amounted to 13248 ± 619 mg·min/dL. The compound further had an IC50 in series [2] of 0.6 nM.
In series [2], `CC(C)[C@H](N)C(=O)N1C[C@@H](F)C[C@H]1C#N` [Example 15, (2S,4S)-1-[(2S)-2-amino-3-methylbutanoyl]-2-cyano-4-fluoropyrrolidine Hydrochloride] came in with a half-inhibitory concentration (IC50) of 0.7 nM.
On the same count and under the same terms, the figure for `CC(C)(C)[C@H](N)C(=O)N1C[C@@H](F)C[C@H]1C#N` [Example 17, (2S,4S)-1-[(2S)-2-amino-3,3-dimethylbutanoyl]-2-cyano-4-fluoropyrrolidine Hydrochloride] is 0.6 nM.

As a reminder, the IC50 is the concentration that gives 50% inhibition. Lower therefore signals greater potency in that assay.

The record behind these values is US20040072892A1, “Cyanopyrrolidine derivatives” (priority 2000, published 2004).
